The values below come from publication PMC9246766 (Pharmaceutical research, 2022).

Data set [1] deals with T1, OCT3 (Homo sapiens, UniProt O75751).
T1 sequence (O75751 1-556): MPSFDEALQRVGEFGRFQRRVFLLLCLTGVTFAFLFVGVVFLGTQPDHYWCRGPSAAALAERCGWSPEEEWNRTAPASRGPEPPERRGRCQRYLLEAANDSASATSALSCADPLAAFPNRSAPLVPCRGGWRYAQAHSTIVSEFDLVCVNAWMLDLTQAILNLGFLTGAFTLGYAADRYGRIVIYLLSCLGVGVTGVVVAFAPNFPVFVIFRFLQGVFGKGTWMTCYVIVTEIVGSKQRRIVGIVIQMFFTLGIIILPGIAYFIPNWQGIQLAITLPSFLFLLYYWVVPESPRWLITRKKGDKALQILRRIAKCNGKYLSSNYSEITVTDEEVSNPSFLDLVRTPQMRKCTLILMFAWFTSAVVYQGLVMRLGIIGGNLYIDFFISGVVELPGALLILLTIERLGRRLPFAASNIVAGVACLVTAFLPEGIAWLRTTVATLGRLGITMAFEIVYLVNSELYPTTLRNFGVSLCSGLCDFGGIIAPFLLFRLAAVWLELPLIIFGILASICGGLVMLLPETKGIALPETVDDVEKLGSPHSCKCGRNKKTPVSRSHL
The data set is described as follows: ASP+ uptake kinetics in HEK-293 cells overexpressing OCT3. Format: cell-based. As to conditions: read-out: Km of OCT3-mediated ASP+ uptake; 2 min uptake, 37°C; OCT3-specific uptake (OCT3 minus empty vector).

For data set [2] the following is noted: total maximum plasma concentration; ref http://www.micromedexsolutions.com/; cited from earlier work.
The target in data set [3] is T1, OCT3. Kind of data set: High throughput screen: inhibition of OCT3-mediated ASP+ uptake in HEK-293 cells stably expressing OCT3. Format: cell-based. Conditions: for inhibition at 20 µM: HEK293.
The target of data set [4] is T1, OCT3. The data set is described as follows: Predicted DDI potential: ratio of plasma CMAX (total or unbound) to predicted OCT3 IC50. As to conditions: unbound plasma CMAX over predicted OCT3 IC50.
For data set [5] the following is noted: plasma protein binding used for unbound CMAX; source not given; cited from earlier work.
For data set [6], the target named is T1, OCT3. Conditions: read-out: Experimental IC50; OCT3 inhibition, literature value; ref 1 (Bourdet et al., 2005); cited from earlier work.
For data set [7] the following is noted: cited from earlier work; for FDA product insert: warnings, precautions and major adverse reactions: cardiovascular / CNS related, ref FDA product insert; for Neurological side effects: stated in discussion, ref Table SII, 60.
Data set [8] addresses T1, OCT3. Kind of data set: IC50 determination against OCT3-mediated [14C]metformin uptake in HEK-293 cells overexpressing OCT3. The format is cell-based.
For data set [9], the target named is T1, OCT3. Kind of data set: IC50 determination against OCT3-mediated ASP+ uptake in HEK-293 cells overexpressing OCT3. Format: cell-based.

Read-outs that look alike come from different tables or passages of the source.

On to `CN(C)c1ccc(/C=C/c2cc[n+](C)cc2)cc1` [ASP^+, 4-Di-1-ASP], for which the Km on OCT3 [1] worked out at 33.3 µM.
Take `CC1(C)S[C@@H]2[C@H](NC(=O)[C@H](NC(=O)N3CCNC3=O)c3ccccc3)C(=O)N2[C@H]1C(=O)O` [azlocillin]: in data set [2], the Cmax was 17.3 µM. Moreover, on OCT3 [3], half-maximal inhibition (IC50) required 9.9 µM and the inhibition at 20 µM is 66.9%. Besides, the “Unbound CMAX/IC50” value at OCT3 [4] is recorded as 1.23. For the same molecule, the Protein binding in data set [5] was 30%.
In the case of `NC(N)=Nc1nc(CSCCC(N)=NS(N)(=O)=O)cs1` [famotidine], the Cmax in data set [2] is 308 µM. On OCT3 [3], the IC50 stood at 9.9 µM and the inhibition at 20 µM came out at 66.9%. Besides, the IC50 at OCT3 [6] is 6.7 ± 2 µM. In addition, at OCT3 [4], the “Unbound CMAX/IC50” value is recorded as 28.0. Moreover, the Protein binding in data set [5] is on record as 10%. In addition, in [7], the “FDA product insert: warnings, precautions and major adverse reactions” value (“FDA product insert: warnings” for short) was “Warnings and precautions: Central Nervous System (CNS) Adverse Reactions: Advise elderly patients and those with moderate and severe renal impairment of the risk of CNS adverse reactions, including confusion, delirium, hallucinations, disorientation, agitation, seizures, and lethargy”; the Neurological side effects result is reported as “neurological side effects”.
With `O=C(O)c1ccccc1Nc1cccc(C(F)(F)F)c1` [flufenamic acid], the Cmax in data set [2] is 24.2 µM. At OCT3 [3], this molecule showed an IC50 of 13 µM and an inhibition at 20 µM of 60.6%. Also, the “Unbound CMAX/IC50” value at OCT3 [4] is reported as 0.19. Also, the Protein binding in [5] was 90%.
As for `C[C@@H](O)[C@H]1C(=O)N2C(C(=O)O)=C(S[C@@H]3CN[C@H](C(=O)N(C)C)C3)[C@H](C)[C@H]12` [meropenem], the Cmax in [2] was 256 µM. Further, at OCT3 [3], half-maximal inhibition (IC50) was put at 10.8 µM and the inhibition at 20 µM was 65%. Moreover, the “Unbound CMAX/IC50” value at OCT3 [4] is 23.3. For the same molecule, in data set [7], the “FDA product insert: warnings” value was “Warnings and precautions: Seizures and other adverse CNS experiences have been reported during treatment”; the Neurological side effects entry is recorded as “neurological side effects”.
`O=c1n(CCCN2CCN(c3cccc(Cl)c3)CC2)nc2ccccn12` [trazodone]: the Cmax in data set [2] was 7.6 µM. The IC50 was below 5 µM against OCT3 [3], 2.5 µM at OCT3 [8] and 5.2 µM at OCT3 [9]. Moreover, the inhibition at 20 µM against OCT3 [3] was determined as 94.5%. Also, the “Unbound CMAX/IC50” value on OCT3 [4] is on record as 0.15. Moreover, the Protein binding in [5] is 90%. The “FDA product insert: warnings” value is “warnings and precautions related to cardiovascular side-effects” in data set [7]; “Warnings and precautions: Cardiac Arrhythmias: Increases the QT interval. Avoid use with drugs that also increase the QT interval and in patients with risk factors for prolonged QT interval” in data set [7] (listed as Trazodone).
